This note sets out measurements from paper PMC7617869, “Molecular glues that inhibit deubiquitylase activity and inflammatory signaling” (Nature Structural & Molecular Biology, 2025).

Structures are written as SMILES.

For experiment [1], the target named is T1, BRISC (Homo sapiens, UniProt P46736+Q15018+Q9NXR7).
T1 construct: made in house; host or cells: Spodoptera frugiperda (Sf9) insect cells, MultiBac
As to the kind of experiment: BRISC DUB activity assay (IQF K63-linked diubiquitin). The format is biochemical. Conditions: for IC50: IQF K63-linked diubiquitin substrate, read-out: IC50, inhibition of BRISC DUB activity; for Mean V0: Fig. 1d. As for the experimental part: IQF assays were performed in DUB reaction buffer containing 50 mM HEPES–NaOH pH 7.0, 100 mM NaCl, 0.1 mg ml^−1 BSA, 1 mM DTT and 0.03% v/v Brij-35. […] The final concentration of BRISC WT, all BRISC mutants, HsBRISCΔLoop, MmBRISC and DrBRISCΔNΔC was 1 nM. Other enzymes were tested at the following concentrations: 5 nM ARISC (FL), 10 nM CfBRISCΔNΔC, 250 nM AMSH* (ref. [43]), 500 nM USP2 and 1 μM trypsin (Sigma, 9002-07-7). For Michaelis–Menten experiments, 1 nM BRISC with 0–1 μM IQF K63-linked diubiquitin substrate was used. Michaelis–Menten analyses and Lineweaver–Burk plots were calculated using GraphPad Prism (version 9.0).
To assess enzymatic activity, BRISC complexes were diluted to concentrations between 1 nM and 50 nM. […] Then, 20-μl enzyme reactions were carried out in 384-well black flat-bottom low-flange plates (Corning, 35373). DUB activity was measured using IQF K63-linked diubiquitin (LifeSensors, DU6303) at 50 nM. Cleaved diubiquitin was monitored by measuring fluorescence intensity (excitation, 544 nm; emission, 575 nm; dichroic mirror, 560 nm). Fluorescence intensity was measured every minute for 30 min at 30 °C. Fluorescence intensity units were plotted against time to generate a linear reaction progress curve, where the initial velocity (V0) corresponds to the gradient of the curve (typically achieved within 15 min). IC50 values were calculated using the GraphPad Prism (version 9.0) built-in dose–response equation for inhibitor concentration versus response (variable slope).

Experiment [2] has as its target T1, BRISC. The experiment is described as follows: Compound library screening and hit validation (IQF diubiquitin, 1 nM BRISC). The format is biochemical. As for the experimental part:
Assays were performed in 384-well black flat-bottom low-flange plates (Corning, 35373) in buffer containing 50 mM HEPES–NaOH pH 7.0, 100 mM NaCl, 1 mg ml^−1 BSA, 1 mM DTT and 0.03% v/v Brij-35. Then, 10 μl of twofold concentrated enzyme stock was dispensed, followed by transfer of 200 nl of compounds (1 mM stock) using a 384-pin tool and a 15-min incubation at room temperature. Then, 10 μl of twofold concentrated substrate stock was added and the reaction was monitored by measuring fluorescence intensity (excitation, 540 nm; emission, 580 nm) after 20-min incubation at room temperature and ~50% of substrate was consumed. Orthogonal assays for verification of H20 and P12 hit compounds using USP2 (100 nM) and trypsin (125 nM) were performed in identical conditions.

With `O=C(NC1CCNCC1)c1n[nH]cc1NC(=O)c1c(Cl)cccc1Cl` [AT7519, N-(4-piperidinyl)-4-(2,6-dichlorobenzoylamino)-1H-pyrazole-3-carboxamide, reference compound], the “inhibition of BRISC DUB activity (in words)” value in experiment [1] (IQF diubiquitin assay) is “neither inhibited”.
In general, IC50 refers to the point on the concentration scale where inhibition reaches its midpoint. As to `CN1CCC(NC(=O)c2nn(C(=O)c3c(Cl)cccc3Cl)cc2NC(=O)c2c(Cl)cccc2Cl)CC1` [FX-25-1], in experiment [1], the IC50 was 5.2 µM. Further, the “normalised V0, Mean” value in experiment [1] (inhibitor 0.0268861 μM) came to 1; in experiment [1] (inhibitor 0.268861 μM), 0.8889; in experiment [1] (inhibitor 0.806584 μM), 0.8346; in experiment [1] (inhibitor 2.41975 μM), 0.6971; in experiment [1] (inhibitor 7.25926 μM), 0.4496; in experiment [1] (inhibitor 21.7778 μM), 0.3208. The “normalised V0, Mean” value in experiment [1] (inhibitor 65.3333 μM) was 0.1744; in experiment [1] (inhibitor 196 μM), 0.1298.
Regarding `O=C(NC1CCNCC1)c1nn(C(=O)c2c(Cl)cccc2Cl)cc1NC(=O)c1c(Cl)cccc1Cl` [JMS175-2], the “Mean V0” value in experiment [1] (log[compound (μM)] 0.1938) was 0.5385; in experiment [1] (log[compound (μM)] 0.4949), 0.3840; in experiment [1] (log[compound (μM)] 0.7959) it was 0.2986; in experiment [1] (log[compound (μM)] 1.0969), 0.2014; in experiment [1] (log[compound (μM)] 1.3979), 0.1684; in experiment [1] (log[compound (μM)] 1.6990), 0.1492. Also, the “Mean V0” value in experiment [1] (log[compound (μM)] 2.0000) was 0.0500; in experiment [1] (log[compound (μM)] 2.3010), 0.0048; in experiment [1] (log[compound (μM)] -0.1072), 0.7414; in experiment [1] (log[compound (μM)] -1.1072), 0.9992; in experiment [1] (log[compound (μM)] -2.0000), 1.0000.
For `C[N+]1(C)CCC(NC(=O)c2nn(C(=O)c3c(Cl)cccc3Cl)cc2NC(=O)c2c(Cl)cccc2Cl)CC1` [FX-25-2], the half-inhibitory concentration (IC50) in experiment [1] was determined as 21 µM. Besides, the “normalised V0, Mean” value in experiment [1] (inhibitor 0.0268861 μM) came out at 1; in experiment [1] (inhibitor 0.268861 μM) it was 1.082; in experiment [1] (inhibitor 0.806584 μM) it was 1.109; in experiment [1] (inhibitor 2.41975 μM), 1.0044; in experiment [1] (inhibitor 7.25926 μM), 1.002; in experiment [1] (inhibitor 21.7778 μM), 0.6484. Moreover, the results for the “normalised V0, Mean” value in experiment [1] (inhibitor 65.3333 μM) and in experiment [1] (inhibitor 196 μM) were 0.3437 and 0.2841, respectively.
As to `O=C(NC1CCNCC1)c1n[nH]cc1NC(=O)c1c(Cl)cccc1Cl` [AT7519 (Synkinase)], the “normalised V0, Mean” value in experiment [2] (log[compound (μM)] 0.0000) came to 0.9360; in experiment [2] (log[compound (μM)] 1.0000), 0.9184; in experiment [2] (log[compound (μM)] 1.3010) it was 0.8902; in experiment [2] (log[compound (μM)] 1.6990), 0.8666; in experiment [2] (log[compound (μM)] 2.0000) it was 0.8425; in experiment [2] (log[compound (μM)] -3.0000, normalisation point) it was 1.
`O=C(NC1CCNCC1)c1n[nH]cc1NC(=O)c1c(Cl)cccc1Cl` [AT7519 (Sellekchem)]: the “normalised V0, Mean” value in experiment [2] (log[compound (μM)] 0.0000) is reported as 0.9555; in experiment [2] (log[compound (μM)] 0.6990), 1.0013; in experiment [2] (log[compound (μM)] 1.0000), 1.0109; in experiment [2] (log[compound (μM)] 1.4771) it was 0.9903; in experiment [2] (log[compound (μM)] 1.6990), 1.0462; in experiment [2] (log[compound (μM)] 2.0000) it was 1.0357. Also, the “normalised V0, Mean” value in experiment [2] (log[compound (μM)] 2.3010) is reported as 0.9736; in experiment [2] (log[compound (μM)] -1.0000), 1.0118; in experiment [2] (log[compound (μM)] -1.3010), 0.9395; in experiment [2] (log[compound (μM)] -4.0000), 1.0025.
